Results published in publication PMC6895180 (Nature Communications, 2019).
Values joined by “and” are separate entries in the source; they are usually repeats but may differ in a detail not shown here. Equal entries are not always repeated. Where two headings read alike, the source gives them in different places.

How the values were obtained:
T. brucei NY-SM cells [1] = test: Susceptibility assay, NY-SM cells; type: cell-based, Trypanosoma brucei brucei
Description: Susceptibility assays with NY-SM[51], BS221[48] and TbAT1-KO[48] (derived from BS221) cells were performed using 10 concentrations of a 4-fold compound dilution series starting at 64 µM. Parasites were seeded at 4 × 10^3 parasites per well and exposed to drug compound for 72 h, after which resazurin (final concentration of 10 µg mL^−1) was added to the plates. Fluorescence intensities were determined after 6 h.

T. brucei ADKIN = molecular target: T1, T. brucei ADKIN (Trypanosoma brucei brucei, UniProt Q584S6); test: ADKIN assay (phosphorylation by purified recombinant enzyme, HPLC); type: biochemical; parameters: Conc.9-MP: unit not given here; conditions: for Conc.9-MP: TbAK assay; for Act (U/mg): TbAK
T1 sequence (Q584S6 1-345): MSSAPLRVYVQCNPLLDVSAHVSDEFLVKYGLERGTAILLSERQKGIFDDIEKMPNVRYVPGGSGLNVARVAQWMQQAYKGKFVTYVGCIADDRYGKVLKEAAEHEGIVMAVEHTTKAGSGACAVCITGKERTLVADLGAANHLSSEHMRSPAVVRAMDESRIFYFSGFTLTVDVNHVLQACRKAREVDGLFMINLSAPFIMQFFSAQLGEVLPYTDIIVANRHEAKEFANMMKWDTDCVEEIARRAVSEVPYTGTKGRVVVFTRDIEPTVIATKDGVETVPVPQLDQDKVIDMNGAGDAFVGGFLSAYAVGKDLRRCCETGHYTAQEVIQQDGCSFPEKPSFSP
Description: The T. brucei ADKIN enzyme was diluted in a buffer containing 0.05% (v/v) Tween-20, 50 mM KCl, 0.1 mM dithiothreitol, and 50 mM Tris-HCl, pH 7.5 (dilution buffer), prior to use in the assay. The final assay mixture contained 12.5 ng T. brucei ADKIN, a range between 50 and 1000 µM of nucleoside 9 (or 1000 µM deoxyadenosine in the control reaction), 100 mM KCl, 10 mM MgCl2, 0.5 mM ATP, 5 mM potassium phosphate and 50 mM Tris-HCl, pH 7.5. The assay was incubated at 37 °C for 30 min, and subsequently heated for 2 min at 100 °C to inactivate the enzyme, diluted with 2 volumes of water, centrifuged through a Nanosep 3k Omega filter and mixed 1:1:2 with water and mobile phase. The HPLC analysis was performed on a 2.1 × 150 mm ACE Excel C18 column using a mobile phase composition 4A:76B:20C (see nucleotide pool analysis, Supplementary Information for details). Using these conditions, consecutive samples could be loaded (Supplementary Fig. 12). After 4–5 samples, the column was washed with high percent A (80A:20C) to remove bound ADP and ATP before re-equilibrating the column to original conditions.

[2] = Metabolic stability, mouse liver microsomes (phase I and II)
Description: Mouse, rat, and pooled human liver microsomes were purchased from a commercial source (Corning) and stored at -80 °C. NADPH generating system solutions A and B and UGT reaction mix solutions A and B (Corning) were kept at -20°C. The test compound and the reference compounds diclofenac (MW […]
microsomal stability assay was carried out based on the BD Biosciences Guidelines for Use (TF000017 Rev1.0) with minor adaptations. Metabolic stability of the compounds was studied through the CYP450 superfamily (phase I metabolism) by fortification with reduced nicotinamide adenine dinucleotide phosphate (NADPH) and through uridine glucuronosyl-transferase (UGT) enzymes (phase II metabolism) by fortification with uridine diphosphate glucuronic acid (UDPGA). For the CYP450 and other NADPH dependent enzymes, both compounds were incubated at 5 µM together with 0.5 mg mL-1 liver microsomes in potassium phosphate buffer in a reaction started by the addition of 1 mM NADPH […]
At these time points, 20 µL was withdrawn from the reaction mixture and 80 µL cold acetonitrile (ACN) containing the internal standard tolbutamide, was added to inactivate the enzymes and precipitate the proteins. The mixture was vortexed for 30 s and centrifuged at 4 °C for 5 min at 15,000 rpm. The supernatant was stored at -80°C until analysis. For the UGT enzymes, both compounds were incubated at 5 µM together with 0.5 mg mL-1 liver microsomes in a reaction started by the addition of 2 mM UDPGA cofactor. The corresponding loss of parent compound was determined using liquid chromatography (UPLC) (Waters AquityTM) coupled with tandem quadrupole mass spectrometry (MS²) (Waters XevoTM), equipped with an electrospray ionization (ESI) interface and operated in multiple reaction monitoring (MRM) mode. […]

T. brucei NY-SM cells [3] = test: RNA quantification (total RNA, RT-qPCR of SL-RNA, 18S rRNA, TERT); type: cell-based, Trypanosoma brucei; conditions: for RNA Yield: RNA Content: Control 1.00; for RNA Yield: 18S rRNA / RNA Yield: SL-RNA / RNA Yield: TERT: Control about 1
Description: After 24 h, the cells were harvested and washed with PBS. […] RNA was extracted using the QIAamp RNA Blood Mini Kit (Qiagen). Total RNA yields were determined using both Nanodrop 2000 spectrometry and Qubit fluorimetric RNA content analysis. Additionally, specific transcripts in the RNA pool were quantified using RT-qPCR targeting the SL-RNA, 18S rRNA and transcripts encoding the telomerase reverse transcriptase (TERT)[28],[56]. A list of primers used is provided in the Supplementary Methods section of the Supplementary Information.

For Nc1ncnc2c1ccn2[C@@H]1O[C@H](CO)C[C@H]1O [Compound 9, 3’-deoxytubercidin], the IC50 (T. brucei NY-SM cells [1]; NYsm parental cells, single replicates, read-out: IC50) was 7.98 nM and 7.87 nM, the “Inhibition (%)” value (T. brucei NY-SM cells [1]; NYsm, 0.000244141 µM) was 0% and 3.5% and 5.32% and 2.3% and the “Inhibition (%)” value (T. brucei NY-SM cells [1]; NYsm, 0.000976563 µM) was 5.56% and 15% and 14% and 7%. For the same compound, the “Inhibition (%)” value (T. brucei NY-SM cells [1]; NYsm, 0.00390625 µM) was 52% and 44%, the “Inhibition (%)” value (T. brucei NY-SM cells [1]; NYsm, 0.015625 µM) was 98% and the “Inhibition (%)” value (T. brucei NY-SM cells [1]; NYsm, 1 µM) was 98%. It also gave an IC50 (T. brucei NY-SM cells [1]; Trypanosoma brucei, NYsm parental cells, single replicates, read-out: IC50) of 7.92 nM, an inhibition at 0.00390625 µM (T. brucei NY-SM cells [1]; Trypanosoma brucei, NYsm, 0.00390625 µM) of 53% and an inhibition at 0.015625 µM (T. brucei NY-SM cells [1]; Trypanosoma brucei, NYsm, 0.015625 µM) of 99%. For the same compound, the inhibition at 0.0625 µM (T. brucei NY-SM cells [1]; Trypanosoma brucei, NYsm, 0.0625 µM) was 99%, the inhibition at 0.25 µM (T. brucei NY-SM cells [1]; Trypanosoma brucei, NYsm, 0.25 µM) was 100% and the inhibition at 1 µM (T. brucei NY-SM cells [1]; Trypanosoma brucei, NYsm, 1 µM) was 100%. It also gave an inhibition at 4 µM (T. brucei NY-SM cells [1]; Trypanosoma brucei, NYsm, 4 µM) of 100%, an inhibition at 16 µM (T. brucei NY-SM cells [1]; Trypanosoma brucei, NYsm, 16 µM) of 100% and an inhibition at 64 µM (T. brucei NY-SM cells [1]; Trypanosoma brucei, NYsm, 64 µM) of 100%. For the same compound, the IC50 (T. brucei NY-SM cells [1]; Trypanosoma brucei, single determinations, read-out: IC50, NYsm) was 5.2 nM, the IC50 (T. brucei NY-SM cells [1]; single determinations, read-out: IC50, NYsm) was 5.9 nM and 6.6 nM and 3.6 nM and 4.6 nM and 3.7 nM and 6.4 nM and the Conc.9-MP (T. brucei ADKIN; substrate 50 µM, 3 series) was 11.2244 and 8.987 and 9.705. The Conc.9-MP (T. brucei ADKIN; substrate 100 µM) was 19.1548 and 15.376 and 17.4986, the Conc.9-MP (T. brucei ADKIN; substrate 250 µM) was 33.0019 and 26.0907 and 28.4308 and the Conc.9-MP (T. brucei ADKIN; substrate 500 µM) was 42.1131 and 37.0292 and 37.487. For the same compound, the Conc.9-MP (T. brucei ADKIN; substrate 1000 µM) was 45.1958 and 43.7663 and 38.425, the “Act (U/mg)” value (T. brucei ADKIN; substrate 50 µM, U = µmol/min) was 1.497 U/mg and 1.198 U/mg and 1.294 U/mg and the “Act (U/mg)” value (T. brucei ADKIN; substrate 100 µM) was 2.554 U/mg and 2.05 U/mg and 2.333 U/mg. The “Act (U/mg)” value (T. brucei ADKIN; substrate 250 µM) was 4.4 U/mg and 3.479 U/mg and 3.791 U/mg, the “Act (U/mg)” value (T. brucei ADKIN; substrate 500 µM) was 5.615 U/mg and 4.937 U/mg and 4.998 U/mg and the “Act (U/mg)” value (T. brucei ADKIN; substrate 1000 µM) was 6.0261 U/mg and 5.836 U/mg and 5.123 U/mg. The “Vmax mg^−1 with TbADKIN” value (T. brucei ADKIN; mean and SE, n = 3) was 0.116 ± 0.0048 U (µmol s^−1), the “Vmax/mg with TbADKIN (original value)” value (T. brucei ADKIN; value before revision) was 6.93 ± 0.29 U (µmol . min-1) and the “% analogue 9 remaining, EXP 1 / EXP 2” value ([2]; microsomes, 0 min, 5 µM) was 100%. For the same compound, the “% analogue 9 remaining, Mean” value ([2]; microsomes, 0 min, 5 µM) was 100%, the metabolic stability ([2]; s9, 0.5 h) was “metabolically stable” and the “RNA Yield: RNA Content” value (T. brucei NY-SM cells [3]; 1.4 nM) was 1.35 and 1.46. For the same compound, the “RNA Yield: 18S rRNA” value (T. brucei NY-SM cells [3]; 1.4 nM) was 0.9222 and 0.9324 and 0.9996 and 1.001, the “RNA Yield: SL-RNA” value (T. brucei NY-SM cells [3]; 1.4 nM) was 0.789 and 0.7785 and 0.978 and 0.9385 and the “RNA Yield: TERT” value (T. brucei NY-SM cells [3]; 1.4 nM) was 0.9232 and 0.9182 and 1.015 and 1.009. The “RNA Yield: RNA Content” value (T. brucei NY-SM cells [3]; 3.5 nM) was 0.81 and 1.07, the “RNA Yield: 18S rRNA” value (T. brucei NY-SM cells [3]; 3.5 nM) was 0.9119 and 1.014 and 1.009 and 1.044 and the “RNA Yield: SL-RNA” value (T. brucei NY-SM cells [3]; 3.5 nM) was 0.7939 and 0.7953 and 1.021 and 1.016. The “RNA Yield: TERT” value (T. brucei NY-SM cells [3]; 3.5 nM) was 0.9429 and 0.9282 and 1.046 and 1.035, the “RNA Yield: RNA Content” value (T. brucei NY-SM cells [3]; 7 nM) was 0.50 and 0.86 and the “RNA Yield: 18S rRNA” value (T. brucei NY-SM cells [3]; 7 nM) was 1.036 and 1.037. The “RNA Yield: SL-RNA” value (T. brucei NY-SM cells [3]; 7 nM) was 1.052 and 1.049, the “RNA Yield: TERT” value (T. brucei NY-SM cells [3]; 7 nM) was 1.046 and 1.042 and the “impact on RNA synthesis” value (T. brucei NY-SM cells [3]; 24 h, various concentrations) was “absence of a major impact on the total RNA pool and the levels of specific transcripts”.
